Target: Brd4 (Homo sapiens, UniProt O60885)
Experiment: Brd4 degradation by immunoblotting in PC-3 cells
Format: cell-based
Conditions: siRNA-VHL 50 nM 72 h, then 30 nM SHD913 for 4 h

siVHL: siRNA against VHL; sense sequence 5′- GGCUCAACUUCGACGGCGA −3′ (antisense UCGCCGUCGAAGUUGAGCC; chemistry not given here)
effect of siVHL pretreatment on SHD913-mediated Brd4 degradation: reversed SHD913-mediated Brd4 degradation

From article PMC11672125 (JACS Au, 2024)
